Tested on: EcR-293 cells
Assay: MKL1 localization by immunofluorescence after LPA stimulation
Format: cell-based
Conditions: 50 μm LPA, 20 min
Procedure: Cells were grown on 4-compartment plastic tissue culture dishes (Greiner Bio-One, Kremsmünster, Austria) and fixed with 100% methanol at −20° C. for 15 min. Anti-MKL1 total mAb hybridoma supernatant was diluted 1:4 in PBS and incubated on the cells for 1.5 h at RT. After washing with PBS, fluorescent secondary antibodies were applied for 1.5 h at RT to visualize the MKL1 staining (1:1000 in PBS). After washing, coverslips were mounted on the cells using ProLong Gold Antifade reagent (life Technologies/Invitrogen).
Oleoyl-α-lysophosphatidic acid (LPA) was purchased from Sigma-Aldrich (Buchs, Switzerland) and stock solutions were prepared in 1% BSA (Sigma-Aldrich)/PBS. EcR-293 cells stably overexpressing 5′UTR-MKL1_S or 5′UTR-MKL1_L were seeded on plastic dishes precoated with 0.4 mg/ml poly-L-lysine (Sigma-Aldrich) and starved overnight with D-MEM/0.3% FBS. After 18 h starvation, the cells were treated with 50 μm LPA for 0, 5, 20, or 60 min, and subsequently stained with anti-MKL1 total mAb (see immunofluorescence staining). After staining, MKL1 staining of strongly overexpressing cells was classified as predominantly cytosolic (nucleus clearly distinguishable as unstained), equally distributed, or predominantly nuclear (nucleus clearly distinguishable as stained).

In the case of Oleoyl-α-lysophosphatidic acid [LPA], the “cells showing nuclear staining” value (starved EcR-293 cells expressing MKL1_L) was “very few” and the “cells showing partial or full nuclear MKL1 accumulation” value (starved EcR-293 cells expressing MKL1_S) was “two thirds”.

Reference: patent publication US20150218238A1, “TREATING DISEASES BY MODULATING A SPECIFIC ISOFORM OF MKL1” (NOVARTIS FORSCHUNGSSTIFTUNG, ZWEIGNIEDERLASSUNG FRIEDRICH …, priority 2012, published 2015)
